According to ChEMBL document CHEMBL5370683, “Peptide-to-Small Molecule: Discovery of Non-Covalent, Active-Site Inhibitors of β-Herpesvirus Proteases” (ACS Med Chem Lett, 2023):
Peptide text beside a SMILES is read from it.

Key:
[1] = Inhibition of amino terminal GST tagged HCMV protease (1 to 256 residues) expressed in Escherichia coli BL21 (DE3) cells using 5-carboxyfluorescein [FAM]-RGVVNASSRLAK as peptide substrate incubated for 3 hrs by fluorescence based analysis; set-up: species or system Human betaherpesvirus 5
[2] = Inhibition of N-terminal 6 His-tagged HHV6 protease (2 to 230 residues) expressed in Escherichia coli BL21 cells using 5FAM-KPSILNASLTPETVKK as peptide substrate incubated for 3 hrs by fluorescence based analysis; set-up: species or system Human betaherpesvirus 6
[3] = system: Human betaherpesvirus 5; test: Antiviral activity against HCMV infected in HFF cells assessed as reduction in viral replication; assay type: functional, organism-based; conditions: Human betaherpesvirus 5, HFF
[4] = Cytotoxicity against HFF cells assessed as inhibition in cell viability incubated for 5 days by luminescence based analysis; assay type: toxicity; conditions: human, time 5 day
[5] = Apparent permeability across apical to basolateral side in LLC-PK1 cells at 2 uM incubated for 2 hrs by LC/MS/MS method; assay type: ADME, cell-based, Sus scrofa; conditions: pig
[6] = Inhibition of amino terminal GST tagged HCMV protease F10A mutant (1 to 256 residues) expressed in Escherichia coli BL21 (DE3) cells using 5-carboxyfluorescein [FAM]-RGVVNASSRLAK as peptide substrate incubated for 3 hrs by fluorescence based analysis; set-up: species or system Human betaherpesvirus 5
[7] = Inhibition of N-terminal 6 His-tagged HHV6 protease F10A mutant (2 to 230 residues) expressed in Escherichia coli BL21 cells using 5FAM-KPSILNASLTPETVKK as peptide substrate incubated for 3 hrs by fluorescence based analysis; set-up: species or system Human betaherpesvirus 6
[8] = Inhibition of amino terminal GST tagged HCMV protease L11A mutant (1 to 256 residues) expressed in Escherichia coli BL21 (DE3) cells using 5-carboxyfluorescein [FAM]-RGVVNASSRLAK as peptide substrate incubated for 3 hrs by fluorescence based analysis; set-up: species or system Human betaherpesvirus 5
[9] = Inhibition of N-terminal 6 His-tagged HHV6 protease L11A mutant (2 to 230 residues) expressed in Escherichia coli BL21 cells using 5FAM-KPSILNASLTPETVKK as peptide substrate incubated for 3 hrs by fluorescence based analysis; set-up: species or system Human betaherpesvirus 6
[10] = Inhibition of amino terminal GST tagged HCMV protease P12A mutant (1 to 256 residues) expressed in Escherichia coli BL21 (DE3) cells using 5-carboxyfluorescein [FAM]-RGVVNASSRLAK as peptide substrate incubated for 3 hrs by fluorescence based analysis; set-up: species or system Human betaherpesvirus 5
[11] = Inhibition of N-terminal 6 His-tagged HHV6 protease P12A mutant (2 to 230 residues) expressed in Escherichia coli BL21 cells using 5FAM-KPSILNASLTPETVKK as peptide substrate incubated for 3 hrs by fluorescence based analysis; set-up: species or system Human betaherpesvirus 6

In the case of `Cc1ccc([C@@H](c2cn(C3CCCC3)nc2-c2ccccc2C)n2cccc(N3C[C@H](C(=O)NC45CCC(CC4)NC5=O)N(C)C3=O)c2=O)cc1`, the IC50 [1] is reported as 2500 nM, the IC50 [2] is reported as 330 nM and the EC50 [3] is reported as 60000 nM. The CC50 at 120 h [4] was 51000 nM and the Papp A→B at 2 h, 2 µM [5] was 1.3 ×10⁻⁶ cm/s.

With `CC[C@H](C)[C@H](NC(=O)[C@H](Cc1ccccc1)NC(C)=O)C(=O)N[C@H](C(=O)NCC(=O)N[C@@H](Cc1c[nH]cn1)C(=O)N[C@@H](Cc1ccc(O)cc1)C(=O)N[C@@H](Cc1c[nH]c2ccccc12)C(=O)N[C@H](C(=O)N[C@@H](CCCNC(=N)N)C(=O)N[C@@H](C)C(=O)N[C@@H](CC(C)C)C(=O)N1CCC[C@H]1C(=O)N[C@@H](CS)C(=O)NCC(N)=O)C(C)C)[C@@H](C)O` (Ac-FITGHYWVRALPCG-NH2) the IC50 [6] was < 76 nM and the IC50 [7] was < 76 nM.

For `CC[C@H](C)[C@H](NC(=O)[C@H](Cc1ccccc1)NC(C)=O)C(=O)N[C@H](C(=O)NCC(=O)N[C@@H](Cc1c[nH]cn1)C(=O)N[C@@H](Cc1ccc(O)cc1)C(=O)N[C@@H](Cc1c[nH]c2ccccc12)C(=O)N[C@H](C(=O)N[C@@H](CCCNC(=N)N)C(=O)N[C@@H](Cc1ccccc1)C(=O)N[C@@H](C)C(=O)N1CCC[C@H]1C(=O)N[C@@H](CS)C(=O)NCC(N)=O)C(C)C)[C@@H](C)O` (Ac-FITGHYWVRFAPCG-NH2), the IC50 [8] was < 76 nM and the IC50 [9] was < 76 nM.

For `CC[C@H](C)[C@H](NC(=O)[C@H](Cc1ccccc1)NC(C)=O)C(=O)N[C@H](C(=O)NCC(=O)N[C@@H](Cc1c[nH]cn1)C(=O)N[C@@H](Cc1ccc(O)cc1)C(=O)N[C@@H](Cc1c[nH]c2ccccc12)C(=O)N[C@H](C(=O)N[C@@H](CCCNC(=N)N)C(=O)N[C@@H](Cc1ccccc1)C(=O)N[C@@H](CC(C)C)C(=O)N[C@@H](C)C(=O)N[C@@H](CS)C(=O)NCC(N)=O)C(C)C)[C@@H](C)O` (Ac-FITGHYWVRFLACG-NH2), the IC50 [10] was < 76 nM and the IC50 [11] was < 76 nM.
